Measurements from ChEMBL document CHEMBL3507680, “University of Dundee, Gates Library screen for HepG2 cell viability”.

Experiment: Human HepG2 cell viability assay in 384 well format
Type: toxicity, cell-based
Design: dose 125 nL, time 70.5 hour; cytotoxicity at 70.5 h: concentration not given beside the values
Conditions: HepG2 cells, read-out: Inhibition

Structure (SMILES)	cytotoxicity at 70.5 h
O=C(c1ccco1)N1CCC2(CC1)CCN(c1ncccn1)CC2	4.21%
CC(=O)N1CCC2(CCCN(S(=O)(=O)c3ccc(F)cc3)C2)C1 (configuration not stated)	5.56%
NC(=O)N1CCC2(CC1)CC(=O)N(CC1CCCO1)c1ccccc12 (configuration not stated)	5.57%
CO[C@H]1CCN(C(=O)c2cc(C)on2)[C@H]1Cc1ccncc1	-7.23%
Cc1cccc(CN2CCC3(CCN(c4ncccn4)C3)C2=O)c1 (configuration not stated)	-8.75%
O=C(CC1CC1)N1C[C@@H]2CN(c3ccccc3)C(=O)[C@@H]2C1	-8.68%
O=C(c1ccco1)N1CCC12CCN(c1ncc(F)cn1)CC2	0.431%
O=C1CC2(CCN(S(=O)(=O)c3cccs3)C2)CN1c1cccc(F)c1 (configuration not stated)	-9.07%
COc1ccc(C[C@H]2CN(C(=O)CS(C)(=O)=O)CC[C@H]2OC)cc1	-4.64%
Cc1ccccc1N1CC2(CCN(S(=O)(=O)c3ccccc3)C2)CC1=O (configuration not stated)	-7.42%
COc1ccc(C[C@H]2CN(C(=O)c3ccn(C)n3)CC[C@H]2OC)cc1	-0.598%
COc1ccc(C[C@H]2CN(C(=O)c3cnoc3)CC[C@@H]2OC)cc1	-3.97%
CS(=O)(=O)N1CC2(CCN(C(=O)c3csnn3)CC2)c2ccccc21	-4.79%
Cc1ccccc1CN1CCC2(CCCN2C(=O)C(C)C)CC1	32.8%
CN(C)CC(=O)N1CC2(CCN(Cc3ccccc3)C2)C1	35.2%
COCCC(=O)N1C[C@H]2CN(Cc3cccc(C)c3)C(=O)[C@H]2C1	-10.7%
O=C(N1CCCC1)N1CCC2(CC1)C(=O)N(CC1CC1)c1ccccc12	-20.3%
O=C1C[C@H]2[C@@H](CCN2C(=O)c2cscn2)N1Cc1cccnc1	-20.8%
Cc1cccc(CN2C[C@@H]3CN(C(=O)C4CC=CC4)C[C@@H]3C2=O)n1	-14.7%
O=C1C[C@H]2[C@@H](CCN2C(=O)Cc2cccs2)N1CC1CC1	-13.5%
CC(=O)N1[C@H](Cn2cncn2)C[C@@H]2CN(C(=O)c3ccoc3)CC[C@@H]21	-6.21%
CCN1C(=O)CCCC12CCCN(C(=O)c1ccoc1C)C2 (configuration not stated)	-10.9%
O=C(C1CCOC1)N1CCC2(CCCNC2)CC1 (configuration not stated)	-8.86%
O=C(Cc1cccs1)N1CC[C@H]2[C@H]1CCN2Cc1cccnc1	-6.88%
COCC(=O)N1CCc2c(CNS(C)(=O)=O)n[nH]c2C1	-5.36%
CCCS(=O)(=O)N1CCC2(CC(=O)N(c3cnn(C)c3)C2)C1 (configuration not stated)	-7.78%

Structure (SMILES)	cytotoxicity at 70.5 h
O=C1NC(c2ccccc2)=N[C@@]12CC[C@@H]1CN(Cc3ccncc3)C[C@@H]12	-13.9%
c1coc(CN2CCc3ncnc(C4CCOC4)c3CC2)c1 (configuration not stated)	-9.16%
CCOCC(=O)N1CCC[C@]2(C[C@@H](OCc3ccncc3)CO2)C1	-7.17%
COc1ncccc1CN1C[C@H](C(=O)N2CCCO2)[C@@H]2CCO[C@@H]2C1	-6.23%
CCS(=O)(=O)N1CCC2(CC(=O)N(c3ccc4c(c3)OCO4)C2)C1 (configuration not stated)	7.63%
Cn1cccc1C(=O)NCc1cnc2n1CCN(c1ccccn1)C2	-3.68%
Cc1noc(C)c1CN1CCCC2(C1)CN(c1nncs1)CCO2 (configuration not stated)	-7.2%
CC(=O)N1CC(=O)N(c2cnn(C)c2)CC12CCN(Cc1nccs1)C2 (configuration not stated)	-7.04%
N#Cc1cccc(CN2CCn3cc(CNC(=O)C4CCC4)nc3C2)c1	-6.27%
Cn1cccc1C(=O)N[C@@H]1CN(S(C)(=O)=O)[C@@H]2COC[C@@H]21	-8.37%
CN(C)C(=O)N1CCc2c(nnn2C)C1COCC1CC1 (configuration not stated)	-2.28%
COCc1ncn2c1CN(S(=O)(=O)c1cccs1)CCC2	10.6%
CCOCc1ncn2c1CN(S(=O)(=O)c1cccs1)CCC2	12.5%
O=C(CC1CC1)N[C@@H]1CN(Cc2ccoc2)C[C@@H]2CCCO[C@@H]21	14%
CS(=O)(=O)NC[C@H]1OC[C@@H]2CCN(C(=O)c3cccnc3)C[C@@H]21	-0.643%
CCOCc1ncn2c1CN(S(=O)(=O)c1cccs1)CC2	-0.803%
O=C(CC1CC1)N[C@@H]1CN(Cc2nccs2)C[C@@H]2CCCO[C@@H]21	-2.11%
O=C(NCc1ccco1)[C@@]12CCO[C@@H]1CCN(Cc1nccs1)C2	1.38%
COc1ccc(CN2C[C@@H]3CCCO[C@@H]3[C@H](NC(=O)CC3CC3)C2)cc1	3.18%
O=S(=O)(c1ccc(F)cc1)N1CCCn2cnc(CN3CCCC3)c2C1	3.23%
CCN1C(=O)C2(CCOCC2)c2cc(NC(=O)c3cccn3C)ccc21	-0.784%
Cc1nnn2c1COCC(CNC(=O)c1ccnnc1)C2 (configuration not stated)	-0.292%
NCC1[C@H]2CN(Cc3ccccc3F)C[C@@H]12 (some centres not stated)	-6.6%
CN(C)Cc1cncc2c1CCN(Cc1cnn(C)c1)C2	-0.555%
O=C(CC1CC2(CCN(CC3CC3)CC2)Oc2ccccc21)NC1CC1 (configuration not stated)	-5.53%
CC(C)C(=O)N1CC[C@H]2N(C)CC[C@@]2(C(=O)N2CCCC2)CC1	-7.87%

Structure (SMILES)	cytotoxicity at 70.5 h
COCCN1CC2(CCN(C(=O)c3ccno3)CC2)c2ccccc21	27.9%
CC(=O)N1CC[C@H]2OCC[C@@]2(C(=O)NCCc2ccccn2)C1	4.18%
COCCN1CCC2(CC1)CC(NC(=O)C1CC1)c1ccccc1O2 (configuration not stated)	-5.15%
CC(C)CC(=O)NC1CC2(CCN(CCF)CC2)Oc2ccccc21 (configuration not stated)	-6.46%
Cc1cc(C(=O)N2CC[C@@H](N(C)C)[C@@H]2Cc2ccccc2)no1	-0.0942%
CN(C)CCN1C(=O)CCC12CCCN(C(=O)N(C)C)CC2 (configuration not stated)	0.00398%
CC(=O)N1CCCC2(CCC(=O)N2Cc2cccnc2)C1 (configuration not stated)	30.1%
Cc1cccc(CN2CCc3nnc(Cn4cccc4)n3CC2)n1	-5.46%
CC(C)N1CCC2(C=C(C(=O)NC3CC3)c3ccccc32)CC1	-1.67%
CC(=O)N1[C@H](CN(C)C)C[C@@H]2CN(C(=O)c3cnc(C)cn3)CC[C@@H]21	-5.19%
CC(=O)N1[C@H](CN(C)C)C[C@@H]2CN(C(=O)c3cccn3C)CC[C@@H]21	-11.1%
O=C(NC1CC1)C1=CC2(CCN(CCO)CC2)c2ccccc21	-11%
CCOC1COC2(CCN(Cc3cccc(C#N)c3)CC2)C1 (configuration not stated)	-8.68%
c1csc(CN2CCc3ncnc(C4CCOC4)c3CC2)c1 (configuration not stated)	-8.76%
O=C(O)[C@]12CCCN(Cc3ccco3)C[C@H]1CN(c1ncccn1)C2	-12.1%
CC(C)NC(=O)[C@H]1C[C@@H]2[C@@H](C1)OCCN2Cc1ccsc1	-6.32%
CC(C)Oc1ncnc2c1CCN(Cc1ccco1)CC2	-2.84%
Fc1ccc(CN2CCc3ncnc(C4CCOC4)c3CC2)cc1 (configuration not stated)	-5.46%
O=C([C@H]1CN(Cc2ccccc2F)C[C@H]2OCC[C@@H]12)N1CCCO1	1.95%
CN(C)C(=O)CO[C@H]1CN(Cc2cccc(C#N)c2)[C@@H]2COC[C@H]12	7.63%
Cc1noc(C)c1CN1CCn2cc(CNC(=O)C3CCC3)nc2C1	-12.7%
Cn1nnc2c1CCN(C(=O)C1CCC1)C2COCCN1CCCC1 (configuration not stated)	-2.83%
O=C(NCc1cn2c(n1)CN(Cc1cccc(F)c1)CC2)C1CCC1	-3.08%
O=C(N[C@@H]1CN(C2CCCC2)C[C@@H]2CCCO[C@@H]21)c1cnccn1	-12.5%
Cn1cccc1C(=O)N[C@@H]1CN(Cc2ccsc2)[C@@H]2COC[C@@H]21	-10.2%
CN1CCc2ncc(CNC(=O)c3cccn3C)n2CC1	-7.23%

Structure (SMILES)	cytotoxicity at 70.5 h
O=C(CC1CC1)N[C@@H]1CN(c2ncccn2)C[C@@H]2CCCO[C@@H]21	-7.21%
Cn1cccc1C(=O)NCc1cnc2n1CCN(CC1CC1)C2	3.59%
O=C([C@H]1C[C@H]2OCC[C@H]2N(C(=O)c2ccncc2)C1)N1CCCC1	-5.12%
Cc1cc(CN2C[C@@H]3CCCO[C@@H]3[C@H](NS(C)(=O)=O)C2)no1	-1.78%
O=C1[C@H]2CN(Cc3ccc(F)cc3)C[C@H]2CN1c1cncnc1	0.584%
CN1CC[C@H]2OCC[C@@]2(C(=O)NCCc2ccccn2)C1	21.6%
CC[C@H]1N(CC2CCC2)CCC[C@]12CCC(=O)N2Cc1ccncc1	-5.93%
O=C1CC[C@@H]2[C@@H](CCN2Cc2ccccn2)N1CC1CC1	-3.44%
CC(C)NC(=O)[C@H]1C[C@@H]2[C@@H](C1)OCCN2Cc1ccccn1	-5.2%
Cc1noc(C)c1CN1CCCC2(C1)CN(Cc1nccn1C)CCO2 (configuration not stated)	-8.03%
c1csc(CN2CCCC3(COCCN(Cc4c[nH]nn4)C3)C2)c1 (configuration not stated)	1.75%
CN(C)CCOCC1CN(C(=O)N2CCCC2)Cc2ccnn2C1 (configuration not stated)	-5.66%
CN(C)CCNC(=O)c1nc2c(o1)CN(C(=O)c1cccnc1)C2	10.9%
Cn1ccnc1CN1CCN2C[C@H](Oc3cccc(F)c3)C[C@H]2C1	11.9%
CN(C)CCN1CCOCC2(CCCN(C(=O)c3ccccn3)C2)C1 (configuration not stated)	0.371%
CN(C)CCN1CCOCC2(CCCN(C(=O)c3ccoc3)C2)C1 (configuration not stated)	1.59%
O=C(CC1CC1)N[C@@H]1CN(Cc2ccccn2)C[C@@H]2CCCO[C@@H]21	-0.597%
COCc1cncc2c1CCN(Cc1cnn(C)c1)C2	10.6%
O=C(C1CC=CC1)N1CCc2c(COCc3ccncc3)cncc2C1	-10.9%
O=C1C[C@H]2[C@@H](CCN2Cc2ccccn2)N1CCN1CCOCC1	6.45%
O=C1C[C@H]2[C@@H](CCN2Cc2ccccn2)N1Cc1cccnc1	-6.81%
c1cnc(N2CCN(C3CCC[C@@H]4CN(CC5CC5)C[C@H]34)CC2)nc1 (some centres not stated)	-1.3%
Cc1cccc(CN2CCN3C[C@H](Oc4cccnc4)C[C@H]3C2)n1	-1.7%
Cn1ccnc1CN1CCN2C[C@H](OCc3cccnc3)C[C@H]2C1	-2.68%
